Our source for the AC50, IC50 and EC50 values is ChEMBL document CHEMBL1201862, “PubChem BioAssay data set” (2004).

Holding throughout (assay type): functional
Assay [1] addresses T1, Replicative DNA helicase DnaB (Mycobacterium tuberculosis, UniProt P9WMR3).
T1 sequence (P9WMR3 whole entry): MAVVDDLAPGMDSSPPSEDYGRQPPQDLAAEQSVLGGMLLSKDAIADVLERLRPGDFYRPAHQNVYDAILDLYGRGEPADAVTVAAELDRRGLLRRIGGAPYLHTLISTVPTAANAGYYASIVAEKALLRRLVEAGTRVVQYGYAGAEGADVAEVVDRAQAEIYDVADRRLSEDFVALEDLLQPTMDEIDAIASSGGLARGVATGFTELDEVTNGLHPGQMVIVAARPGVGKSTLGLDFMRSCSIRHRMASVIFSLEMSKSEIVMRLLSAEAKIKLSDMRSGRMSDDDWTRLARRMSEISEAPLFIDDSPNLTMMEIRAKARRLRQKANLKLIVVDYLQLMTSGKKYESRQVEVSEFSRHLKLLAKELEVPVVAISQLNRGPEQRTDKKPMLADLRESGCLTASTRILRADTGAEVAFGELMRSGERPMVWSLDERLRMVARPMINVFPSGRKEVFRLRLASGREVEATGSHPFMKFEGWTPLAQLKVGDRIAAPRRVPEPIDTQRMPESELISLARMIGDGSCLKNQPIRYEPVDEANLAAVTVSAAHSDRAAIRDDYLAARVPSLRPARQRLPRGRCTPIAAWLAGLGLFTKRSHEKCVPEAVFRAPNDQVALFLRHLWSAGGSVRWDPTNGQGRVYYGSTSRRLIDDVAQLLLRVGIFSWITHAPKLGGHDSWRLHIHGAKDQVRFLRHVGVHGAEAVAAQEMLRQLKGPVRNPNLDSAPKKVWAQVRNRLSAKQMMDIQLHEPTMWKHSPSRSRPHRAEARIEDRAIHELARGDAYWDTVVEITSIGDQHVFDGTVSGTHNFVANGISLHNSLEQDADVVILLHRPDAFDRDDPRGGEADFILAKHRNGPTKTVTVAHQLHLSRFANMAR
Put plainly: DnaB intein splicing inhibitors, dose response, biochemical, cell-free fluorescence (AID 449749).

For the next assay, the target named is T2, Protein skinhead-1 (Caenorhabditis elegans, UniProt P34707).
T2 sequence (P34707 whole entry): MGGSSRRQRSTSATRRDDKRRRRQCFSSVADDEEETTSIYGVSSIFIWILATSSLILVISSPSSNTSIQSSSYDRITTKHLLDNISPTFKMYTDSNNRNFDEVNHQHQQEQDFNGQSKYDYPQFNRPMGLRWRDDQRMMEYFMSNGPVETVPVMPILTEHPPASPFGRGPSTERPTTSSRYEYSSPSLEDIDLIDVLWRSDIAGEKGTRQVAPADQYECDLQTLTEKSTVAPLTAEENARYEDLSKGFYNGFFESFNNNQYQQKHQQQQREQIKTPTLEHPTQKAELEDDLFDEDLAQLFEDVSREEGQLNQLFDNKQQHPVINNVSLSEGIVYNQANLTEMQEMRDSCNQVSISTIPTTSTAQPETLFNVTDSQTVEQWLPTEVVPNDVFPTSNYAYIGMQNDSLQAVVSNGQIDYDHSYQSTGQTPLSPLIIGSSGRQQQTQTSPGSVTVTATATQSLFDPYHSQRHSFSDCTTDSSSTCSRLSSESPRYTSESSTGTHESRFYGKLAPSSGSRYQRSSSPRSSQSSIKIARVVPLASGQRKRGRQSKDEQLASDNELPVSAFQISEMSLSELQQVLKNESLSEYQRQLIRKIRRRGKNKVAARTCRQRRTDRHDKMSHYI

The next assay has as its target T3, Protein RecA (Mycobacterium tuberculosis, UniProt P9WHJ3).
T3 sequence (P9WHJ3 whole entry): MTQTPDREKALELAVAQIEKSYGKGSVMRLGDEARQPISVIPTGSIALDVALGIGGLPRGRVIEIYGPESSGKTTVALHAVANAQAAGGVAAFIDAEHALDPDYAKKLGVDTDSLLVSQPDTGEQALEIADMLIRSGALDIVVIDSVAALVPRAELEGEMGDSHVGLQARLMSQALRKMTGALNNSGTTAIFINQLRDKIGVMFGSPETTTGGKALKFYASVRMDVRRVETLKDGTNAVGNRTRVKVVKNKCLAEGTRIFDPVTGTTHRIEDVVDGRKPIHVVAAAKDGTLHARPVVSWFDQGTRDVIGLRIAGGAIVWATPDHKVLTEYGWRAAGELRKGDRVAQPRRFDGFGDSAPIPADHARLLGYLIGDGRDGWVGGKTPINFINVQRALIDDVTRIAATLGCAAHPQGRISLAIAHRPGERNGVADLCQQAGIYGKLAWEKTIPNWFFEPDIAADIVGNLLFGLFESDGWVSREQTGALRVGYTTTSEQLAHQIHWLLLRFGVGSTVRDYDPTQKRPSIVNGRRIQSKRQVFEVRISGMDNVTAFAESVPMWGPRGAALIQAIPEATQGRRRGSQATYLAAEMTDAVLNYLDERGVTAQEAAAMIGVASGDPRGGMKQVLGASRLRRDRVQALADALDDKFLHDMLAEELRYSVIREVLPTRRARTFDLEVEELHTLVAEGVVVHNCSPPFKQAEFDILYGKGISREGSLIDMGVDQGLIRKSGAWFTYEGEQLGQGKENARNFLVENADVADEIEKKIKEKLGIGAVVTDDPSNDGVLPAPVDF
Put plainly: Fluorescence Cell-Free Homogeneous Dose Retest to Identify Inhibitors of RecA-Intein Splicing Activity. [Related pubchem assays (depositor defined):AID2097, AID2223, AID489010, AID492950].

Activity calls are given as the source filed them.

A word on the AC50: it is the midpoint of the concentration-response curve, whichever way the signal moves. In general, IC50 refers to the concentration at which inhibition is half-maximal. Usually EC50 stands for the concentration needed to bring the measured effect to its halfway point.

`COc1ccc(-c2cc(C(=O)n3cnc4ccccc43)c3ccccc3n2)cc1`: in assay [1], the AC50 is > 380 µM (inactive). Moreover, the IC50 at Protein skinhead-1 is > 100 µM (inactive). The EC50 at Protein RecA was 3.72 µM (active).
